Structures are written as SMILES.

The first data set can be described thus: Yield of reduced metal compounds under X-ray irradiation. Format: physicochemical.
Conditions: not given
The method, then: Operation steps of test: the compound was dissolved in ultrapure water to prepare a 100 μM metal compound solution, and oxygen gas in the solution was removed by bubbling nitrogen gas for 15 minutes. […] Finally, the remaining amount of raw material was measured, the disappeared concentration of the reactant was calculated, and the radiation yield was calculated (radiation yield=disappeared concentration of reactant/radiation dose).
Consider `O=S(=O)([O-])[O-].[Cu+2]` [Compound 13, copper sulfate], for which the “Yield (radiation yield = disappeared concentration of reactant/radiation dose)” value is 209 nM/Gy.
As to `O=P([O-])([O-])O.[K+].[K+]` [Compound 3, dipotassium hydrogen phosphate], the “Yield (radiation yield = disappeared concentration of reactant/radiation dose)” value is “(No metal cation reduction”.
As for `[Cl-].[Cl-].[Mg+2]` [Compound 4, magnesium chloride], the “Yield (radiation yield = disappeared concentration of reactant/radiation dose)” value is “(No metal cation reduction”.

The data set is the same for the next values; noted with them: 100 μM in deoxygenated ultrapure water, X-rays 0-1000 Gy, 4 Gy/min.
As to `[Cl][Fe]([Cl])[Cl]` [Compound 5, ferric chloride], the “Yield (radiation yield = disappeared concentration of reactant/radiation dose)” value was 578 nM/Gy.
For the molecule `O=[N+]([O-])[O-].[Ag+]` [Compound 14, silver nitrate], the “Yield (radiation yield = disappeared concentration of reactant/radiation dose)” value is recorded as 576 nM/Gy.
For `[K+].[K+].[O]=[Cr](=[O])([O-])[O][Cr](=[O])(=[O])[O-]` [Compound 9, potassium dichromate], the “Yield (radiation yield = disappeared concentration of reactant/radiation dose)” value is given as 87 nM/Gy.
As for `[NH2][Pt]([NH2])([Cl])([Cl])([O]C(=O)CCCC[P+](c1ccccc1)(c1ccccc1)c1ccccc1)[O]C(=O)CCCC[P+](c1ccccc1)(c1ccccc1)c1ccccc1` [Compound 18], the “Yield (radiation yield = disappeared concentration of reactant/radiation dose)” value is given as 427 nM/Gy.
As for `C1=Cc2cc3ccc(cc4nc(cc5ccc(cc1n2)[nH]5)C=C4)[nH]3.[Fe]` [Compound 16, iron porphyrin], the “Yield (radiation yield = disappeared concentration of reactant/radiation dose)” value amounted to 598 nM/Gy.
As for `[Cl][Ni][Cl]` [Compound 10, nickel chloride], the “Yield (radiation yield = disappeared concentration of reactant/radiation dose)” value is given as 347 nM/Gy.
In the case of `[Cl-].[K+]` [Compound 2, potassium chloride], the “Yield (radiation yield = disappeared concentration of reactant/radiation dose)” value is on record as “(No metal cation reduction”.
As to `[Cl-].[Na+]` [Compound 1, sodium chloride], the “Yield (radiation yield = disappeared concentration of reactant/radiation dose)” value was “(No metal cation reduction”.

A short description of a further data set: Radiation-driven (γ-ray) release of Pt(II) drugs from Pt(IV) complexes, UPLC-MS and NMR. Format: physicochemical. The following applies: γ-rays (60Co, 40 kGy), D2O, deoxygenated. The text has this:
To explore the generalizability of this strategy, we further conducted the same study on two other platinum-based drugs commonly used globally, carboplatin and cisplatin.
Regarding `[NH2][Pt]1([NH2])([O]C(=O)CCC(=O)O)([O]C(=O)CCC(=O)O)[O]C(=O)C2(CCC2)C(=O)[O]1` [carboPt(IV)-(Suc)2], the “Product released after irradiation” value is reported as “release the corresponding Pt(II) drugs”.
On the same count and under the same terms, with `NC1CCCCC1N.O=C(O)CCC(=O)[O][Pt]1([O]C(=O)CCC(=O)O)[O]C(=O)C(=O)[O]1` [oxaliPt(IV)-(Suc)2] the entry was “released product was oxaliplatin”; with `N.N.O=C(O)CCC(=O)[O][Pt]([Cl])([Cl])[O]C(=O)CCC(=O)O` [cisPt(IV)-(Suc)2], “release the corresponding Pt(II) drugs”.

(Values after patent publication US20240002419A1, “RADIATION-ACTIVATED TETRAVALENT PLATINUM COMPLEX AND USE THEREOF” (priority 2020, published 2024).)
